21 compounds from patent publication US10179785B2, “Imidazotriazinone or imidazopyrazinone derivatives, and use thereof” (ST PHARM CO., LTD., priority 2014, dated 2019) can be followed below.

The target of one assay is T1, tankyrase 1 (Homo sapiens, UniProt O95271).
T1 construct: purchased Trevigen 4700-096-K
T1 sequence (O95271 1-1327): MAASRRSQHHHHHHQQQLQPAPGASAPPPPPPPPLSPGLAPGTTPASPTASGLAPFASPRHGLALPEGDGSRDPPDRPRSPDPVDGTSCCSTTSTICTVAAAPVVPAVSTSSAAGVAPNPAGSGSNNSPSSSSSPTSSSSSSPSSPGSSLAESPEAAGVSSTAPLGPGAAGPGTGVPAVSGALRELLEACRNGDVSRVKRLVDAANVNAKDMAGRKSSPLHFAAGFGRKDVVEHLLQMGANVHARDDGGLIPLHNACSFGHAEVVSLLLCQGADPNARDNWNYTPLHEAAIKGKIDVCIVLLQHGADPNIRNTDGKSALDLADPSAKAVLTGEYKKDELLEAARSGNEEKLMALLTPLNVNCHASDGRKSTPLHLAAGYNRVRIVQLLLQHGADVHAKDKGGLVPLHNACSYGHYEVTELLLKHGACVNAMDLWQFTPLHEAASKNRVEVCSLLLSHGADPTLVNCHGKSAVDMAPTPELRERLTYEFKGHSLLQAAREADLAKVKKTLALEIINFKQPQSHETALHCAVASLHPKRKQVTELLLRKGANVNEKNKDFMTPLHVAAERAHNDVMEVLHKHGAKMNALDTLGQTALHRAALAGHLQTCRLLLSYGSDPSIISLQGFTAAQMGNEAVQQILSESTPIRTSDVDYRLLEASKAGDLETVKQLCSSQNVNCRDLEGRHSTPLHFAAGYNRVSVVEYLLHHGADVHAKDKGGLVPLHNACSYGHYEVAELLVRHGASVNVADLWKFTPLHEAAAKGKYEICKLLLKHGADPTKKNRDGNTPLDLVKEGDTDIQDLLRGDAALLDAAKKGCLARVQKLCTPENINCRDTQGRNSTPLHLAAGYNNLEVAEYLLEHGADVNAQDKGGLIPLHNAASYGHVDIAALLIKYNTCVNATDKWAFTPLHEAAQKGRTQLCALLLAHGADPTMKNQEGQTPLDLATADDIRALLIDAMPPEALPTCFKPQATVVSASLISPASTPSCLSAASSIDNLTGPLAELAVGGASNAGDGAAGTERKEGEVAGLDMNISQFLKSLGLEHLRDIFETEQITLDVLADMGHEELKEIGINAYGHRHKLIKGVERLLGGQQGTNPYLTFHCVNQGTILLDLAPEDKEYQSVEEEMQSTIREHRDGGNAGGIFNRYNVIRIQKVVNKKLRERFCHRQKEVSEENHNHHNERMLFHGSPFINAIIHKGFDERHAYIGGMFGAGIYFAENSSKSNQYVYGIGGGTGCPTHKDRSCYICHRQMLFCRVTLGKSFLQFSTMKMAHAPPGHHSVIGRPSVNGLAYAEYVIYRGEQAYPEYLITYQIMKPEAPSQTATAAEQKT
As to the kind of experiment: Analysis of activity of tankyrase 1 (Trevigen kit, ELISA absorbance at 450 nm). Type of assay: biochemical.
Details: not given
On the procedure: Activities of novel compounds synthesized according to Examples 1 to 48 against tankyrase 1 were analyzed using a Trevigen kit (Cat. No. 4700-096-K). Poly PAR histone protein-coated 96-well plate, anti-PAR monoclonal antibody and goat anti-mouse IgG-HRP were used for measurement of absorbance by ELISA method. Specifically, 20× I-PAR assay buffer was diluted to 1× by adding water, and 50 μL of the diluted buffer was added to each well of the 96-well plate followed by reacting at rt for 30 min. Then, the supernatant was completely removed from each well and 10 μL of 1× I-PAR assay buffer and 15 μL of assay substrate were added to each well along with 1 μL of a 50× solution of inhibitors to be tested, which were the compounds obtained in the Examples 1 to 48. 10 m Units/μL of tankyrase 1 enzyme was diluted 50-fold with 1× I-PAR assay buffer and 25 μL of the diluted enzyme was added to each well and reacted while stirring at rt for 30 min. One without any compound of the present invention was used as a positive control and another containing 1× I-PAR assay buffer with the same volume instead of tankyrase 1 enzyme was used as a negative control. Upon completion of the reaction, 200 μL of PBSX, which was prepared by adding 0.1% triton X-100 to PBS, was added and removed and this washing process was repeated twice. Washing was repeated twice more using PBS in the same manner. 5× antibody diluent was diluted with distilled water to 1× concentration, 50 μL of the diluted goat anti-mouse IgG-HRP to 1/2000 was added to each well and reacted while stirring at rt for 30 min. Washes were carried out twice using PBSX and PBS, respectively. After addition of 50 μL of TACS-sapphire to each well of the plate, the plate was blocked from light to react for 10 min to 15 min and the color of the reaction solution turned blue. To stop the reaction, 50 μL of 0.2N HCl was added to turn the solution yellow. Finally, the absorbance of the resulting solution was measured at 450 nm.
In turn, `Cc1ncc2c(=O)[nH]c(N3CCN(c4c(F)cc(OC5COC5)cc4F)CC3)nn12` [compound 12, 2-(4-(2,6-Difluoro-4-(oxetan-3-yloxy)phenyl)piperazin-1-yl)-7-methylimidazo[1,5-f][1,2,4]triazin-4(3H)-one] showed a concentration for half-maximal inhibition (IC50) of 96.3 nM.
Still for that read-out and setting: the figure for `Cc1ncc2c(=O)[nH]c(N3CCN(c4c(F)cccc4F)CC3)nn12` [compound 15, 2-(4-(2,6-Difluorophenyl)piperazin-1-yl)-7-methylimidazo[1,5-f][1,2,4]triazin-4(3H)-one] is 17.9 nM; for `Cc1ncc2c(=O)[nH]c(N3CCN(c4ccccc4F)CC3)nn12` [compound 1, 2-(4-(2-Fluorophenyl)piperazin-1-yl)-7-methylimidazo[1,5-f][1,2,4]triazin-4(3H)-one] it is 110 nM.
Same read-out and setting: the figure for `COCCOc1cc(F)c(N2CCN(c3nn4c(C)ncc4c(=O)[nH]3)CC2)c(F)c1` [compound 2, 2-(4-(2,6-Difluoro-4-(2-methoxyethoxy)phenyl)piperazin-1-yl)-7-methylimidazo[1,5-f][1,2,4]triazin-4(3H)-one] is 31.8 nM.

Still in this assay, the particulars now being: Trevigen kit Cat. No. 4700-096-K; reaction at rt for 30 min; read-out: TNKS1 (IC50).
`Cc1ncc2c(=O)[nH]c(N3CCN(c4c(F)cc(OCCO)cc4F)CC3)nn12` [compound 7, 2-(4-(2,6-Difluoro-4-(2-hydroxyethoxy)phenyl)piperazin-1-yl)-7-methylimidazo[1,5-f][1,2,4]triazin-4(3H)-one]: the IC50 was found to be 38.7 nM.
Same read-out and setting: to `Cc1ncc2c(=O)[nH]c(N3CCN(c4c(F)cc(OCC(=O)N5CCCC5)cc4F)CC3)nn12` [compound 29, 2-(4-(2,6-Difluoro-4-(2-oxo-2-(pyrrolidin-1-yl)ethoxy)phenyl)piperazin-1-yl)-7-methylimidazo[1,5-f][1,2,4]triazin-4(3H)-one] belongs 84.8 nM; to `Cc1ncc2c(=O)[nH]c(N3CCN(c4c(F)cc(OCCN5CCCCC5)cc4F)CC3)nn12` [compound 5, 2-(4-(2,6-Difluoro-4-(2-(piperidin-1-yl)ethoxy)phenyl)piperazin-1-yl)-7-methylimidazo[1,5-f][1,2,4]triazin-4(3H)-one], 25.2 nM.
On the same count and under the same terms, to `Cc1ncc2c(=O)[nH]c(N3CCN(c4c(F)cc(CN5CCN(C)CC5)cc4F)CC3)nn12` [compound 11, 2-(4-(2,6-Difluoro-4-((4-methylpiperazin-1-yl)methyl)phenyl)piperazin-1-yl)-7-methylimidazo[1,5-f][1,2,4]triazin-4(3H)-one] belongs 44.1 nM; to `Cc1ncc2c(=O)[nH]c(N3CCN(c4c(F)cc(OCc5ccccc5)cc4F)CC3)nn12` [compound 3, 2-(4-(4-(Benzyloxy)-2,6-difluorophenyl)piperazin-1-yl)-7-methylimidazo[1,5-f][1,2,4]triazin-4(3H)-one], 494 nM.
The same measure, in the same setting: to `Cc1ncc2c(=O)[nH]c(N3CCN(c4c(F)cc(OCCN5CCC(N)CC5)cc4F)CC3)nn12` [compound 34, 2-(4-(4-(2-(4-Aminopiperidin-1-yl)ethoxy)-2,6-difluorophenyl)piperazin-1-yl)-7-methylimidazo[1,5-f][1,2,4]triazin-4(3H)-one] belongs 60.5 nM; to `Cc1ncc2c(=O)[nH]c(N3CCN(c4c(F)cc(OCCN5CCN(C)CC5)cc4F)CC3)nn12` [compound 25, 2-(4-(2,6-Difluoro-4-(2-(4-methylpiperazin-1-yl)ethoxy)phenyl)piperazin-1-yl)-7-methylimidazo[1,5-f][1,2,4]triazin-4(3H)-one], 69.9 nM.
Turning to `Cc1ncc2c(=O)[nH]c(N3CCN(c4c(F)cc(CN5CCOCC5)cc4F)CC3)nn12` [compound 10, 2-(4-(2,6-Difluoro-4-(morpholinomethyl)phenyl)piperazin-1-yl)-7-methylimidazo[1,5-f][1,2,4]triazin-4(3H)-one], the IC50 was found to be 48.8 nM.
Same read-out and setting: to `Cc1ncc2c(=O)[nH]c(N3CCN(c4c(F)cc(OCCN5CCC(O)C5)cc4F)CC3)nn12` (stereo not drawn) [compound 35, 2-(4-(2,6-Difluoro-4-(2-(3-hydroxypyrrolidin-1-yl)ethoxy)phenyl)piperazin-1-yl)-7-methylimidazo[1,5-f][1,2,4]triazin-4(3H)-one] belongs 102 nM; to `Cc1ncc2c(=O)[nH]c(N3CCN(c4c(F)cc(OCCN5CCCC5)cc4F)CC3)nn12` [compound 24, 2-(4-(2,6-Difluoro-4-(2-(pyrrolidin-1-yl)ethoxy)phenyl)piperazin-1-yl)-7-methylimidazo[1,5-f][1,2,4]triazin-4(3H)-one], 93.4 nM.
On the same count and under the same terms, the figure for `Cc1ncc2c(=O)[nH]c(N3CCN(c4c(F)cc(OCCN5CCN(C)CC5=O)cc4F)CC3)nn12` [compound 33, 2-(4-(2,6-Difluoro-4-(2-(4-methyl-2-oxopiperazin-1-yl)ethoxy)phenyl)piperazin-1-yl)-7-methylimidazo[1,5-f][1,2,4]triazin-4(3H)-one] is 180 nM; for `Cc1ncc2c(=O)[nH]c(N3CCN(c4c(F)cc(OCCN5CCC(O)CC5)cc4F)CC3)nn12` [compound 36, 2-(4-(2,6-Difluoro-4-(2-(4-hydroxypiperidin-1-yl)ethoxy)phenyl)piperazin-1-yl)-7-methylimidazo[1,5-f][1,2,4]triazin-4(3H)-one] it is 65.2 nM.
For `Cc1ncc2c(=O)[nH]c(N3CCN(c4c(F)cc(OCC(=O)N5CCCCC5)cc4F)CC3)nn12` [compound 28, 2-(4-(2,6-Difluoro-4-(2-oxo-2-(piperidin-1-yl)ethoxy)phenyl)piperazin-1-yl)-7-methylimidazo[1,5-f][1,2,4]triazin-4(3H)-one], the IC50 turned out to be 63.1 nM.
For the compound `Cc1ncc2c(=O)[nH]c(N3CCN(c4c(F)cc(OCCN5CCOCC5)cc4F)CC3)nn12` [compound 4, 2-(4-(2,6-Difluoro-4-(2-morpholinoethoxy)phenyl)piperazin-1-yl)-7-methylimidazo[1,5-f][1,2,4]triazin-4(3H)-one], the 50% inhibitory concentration (IC50) was determined as 32.3 nM.
Same read-out and setting: the figure for `Cc1ncc2c(=O)[nH]c(N3CCN(c4c(F)cc(OCCN(C)C)cc4F)CC3)nn12` [compound 6, 2-(4-(4-(2-(Dimethylamino)ethoxy)-2,6-difluorophenyl)piperazin-1-yl)-7-methylimidazo[1,5-f][1,2,4]triazin-4(3H)-one] is 19.6 nM; for `Cc1ncc2c(=O)[nH]c(N3CCN(c4c(F)cc(OCCN=[N+]=[N-])cc4F)CC3)nn12` [compound 31, 2-(4-(4-(2-Azidoethoxy)-2,6-difluorophenyl)piperazin-1-yl)-7-methylimidazo[1,5-f][1,2,4]triazin-4(3H)-one] it is 171 nM.
`COCCOc1cc(F)c(C2(O)CCN(c3nn4c(C)ncc4c(=O)[nH]3)CC2)c(F)c1` [compound 17, 2-(4-(2,6-Difluoro-4-(2-methoxyethoxy)phenyl)-4-hydroxypiperidin-1-yl)-7-methylimidazo[5,1-f][1,2,4]triazin-4(3H)-one]: the IC50 amounted to 67.2 nM.

As a reminder, the IC50 is the midpoint of a concentration-inhibition curve.
